Measurements reported in ChEMBL document CHEMBL5230155, “Recent contributions of quinolines to antimalarial and anticancer drug discovery research” (Eur J Med Chem, 2021).

Assays:
[1] = system: RPMI-8226; experiment: Induction of apoptosis in human RPMI-8226 cells assessed as fold increase in caspase-3 level; format: functional
[2] = system: RPMI-8226; experiment: Cytotoxicity against human RPMI-8226 cells; format: functional, cell-based
[3] = system: RPMI-8226; experiment: Induction of apoptosis in human RPMI-8226 cells assessed as fold increase in cytochrome c level; format: functional
[4] = system: HCT-116; experiment: Cytotoxicity against human HCT-116 cells; format: functional, cell-based
[5] = system: Plasmodium falciparum
Description: Antimalarial activity against CQ-sensitive Plasmodium falciparum NF54

[6] = system: Hemozoin; experiment: Inhibition of beta-hematin formation relative to control; conditions: concentration not given here
[7] = Inhibition of PI3K (unknown origin); design: species or system Homo sapiens
[8] = biological target: T1, Tyrosine-protein kinase receptor UFO (Homo sapiens, UniProt P30530); experiment: Inhibition of AXL (unknown origin)
T1 sequence (P30530 whole entry): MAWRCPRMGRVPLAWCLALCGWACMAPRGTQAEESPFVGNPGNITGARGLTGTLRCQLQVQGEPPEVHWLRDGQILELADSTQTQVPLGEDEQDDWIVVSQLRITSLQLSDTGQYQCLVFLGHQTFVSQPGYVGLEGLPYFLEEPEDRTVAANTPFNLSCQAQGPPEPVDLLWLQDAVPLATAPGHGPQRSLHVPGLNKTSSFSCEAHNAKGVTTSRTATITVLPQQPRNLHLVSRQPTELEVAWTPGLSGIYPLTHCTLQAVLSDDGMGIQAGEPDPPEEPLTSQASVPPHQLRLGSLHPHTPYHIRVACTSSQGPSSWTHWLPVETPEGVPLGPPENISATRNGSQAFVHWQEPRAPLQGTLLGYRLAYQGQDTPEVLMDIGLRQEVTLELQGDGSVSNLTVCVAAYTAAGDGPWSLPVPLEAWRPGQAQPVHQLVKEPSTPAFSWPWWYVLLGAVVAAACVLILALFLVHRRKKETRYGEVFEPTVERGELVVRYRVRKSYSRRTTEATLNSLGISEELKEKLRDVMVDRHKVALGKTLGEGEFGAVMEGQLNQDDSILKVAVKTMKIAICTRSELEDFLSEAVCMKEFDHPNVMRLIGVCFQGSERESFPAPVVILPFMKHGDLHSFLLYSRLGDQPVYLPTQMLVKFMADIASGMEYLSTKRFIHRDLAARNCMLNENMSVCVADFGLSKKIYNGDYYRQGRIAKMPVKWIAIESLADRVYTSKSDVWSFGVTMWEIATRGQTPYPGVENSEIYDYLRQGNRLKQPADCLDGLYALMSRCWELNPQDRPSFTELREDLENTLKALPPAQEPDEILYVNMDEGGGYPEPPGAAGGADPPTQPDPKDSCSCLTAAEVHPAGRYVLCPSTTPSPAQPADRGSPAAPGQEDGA

[9] = system: HeLa; experiment: Antiproliferative activity against human HeLa cells; format: functional, cell-based
[10] = system: MCF7; experiment: Antiproliferative activity against human MCF7 cells; format: functional, cell-based; conditions: Homo sapiens, MCF7
[11] = system: DLD-1; experiment: Antiproliferative activity against human DLD-1 cells; format: functional, cell-based
[12] = system: Hep 3B2; experiment: Cytotoxicity against human Hep3B cells assessed as relative value at 15 uM after 48 hrs by MTS method; format: functional
[13] = system: Plasmodium berghei; experiment: Antimalarial activity against Plasmodium berghei ANKA infected in mouse assessed increase in survival time at 20 mg/kg/day, ip for 4 days; format: functional; conditions: time 4 day
[14] = system: Plasmodium berghei; experiment: Antiplasmodial activity against Plasmodium berghei ANKA infected in mouse assessed as reduction in parasitaemia at 20 mg/kg/day, ip administered for 4 days; format: functional; design: scale not given: the % may be the effect or the level left; conditions: time 4 day
[15] = system: Plasmodium falciparum; experiment: Antimalarial activity against CQ-sensitive Plasmodium falciparum D6; format: functional, organism-based
[16] = system: Plasmodium falciparum; experiment: Antimalarial activity against multidrug resistant Plasmodium falciparum Dd2; format: functional, organism-based
[17] = system: Plasmodium falciparum; experiment: Antimalarial activity against Plasmodium falciparum 3D7; format: functional, organism-based
[18] = system: Plasmodium falciparum; experiment: Antimalarial activity against multidrug resistant Plasmodium falciparum K1; format: functional, organism-based
[19] = biological target: Alkaline phosphatase, germ cell type (Homo sapiens, UniProt P10696); experiment: Inhibition of human germ cell alkaline phosphatase
Sequence of Alkaline phosphatase, germ cell type (P10696 whole entry): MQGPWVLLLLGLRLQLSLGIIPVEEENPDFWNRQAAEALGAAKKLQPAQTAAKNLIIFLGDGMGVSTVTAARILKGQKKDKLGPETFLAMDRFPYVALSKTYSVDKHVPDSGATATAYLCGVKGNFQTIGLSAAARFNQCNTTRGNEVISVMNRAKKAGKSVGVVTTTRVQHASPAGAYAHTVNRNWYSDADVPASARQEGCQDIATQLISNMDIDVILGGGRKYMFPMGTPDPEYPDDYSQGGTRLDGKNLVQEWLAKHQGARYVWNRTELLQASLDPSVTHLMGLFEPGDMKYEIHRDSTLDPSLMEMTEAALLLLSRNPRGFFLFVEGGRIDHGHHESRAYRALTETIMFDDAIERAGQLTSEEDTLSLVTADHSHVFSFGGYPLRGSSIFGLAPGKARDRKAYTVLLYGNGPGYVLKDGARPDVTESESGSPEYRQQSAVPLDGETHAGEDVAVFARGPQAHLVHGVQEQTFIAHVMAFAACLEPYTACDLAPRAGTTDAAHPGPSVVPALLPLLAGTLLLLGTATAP

[20] = system: PC-3; experiment: Antiproliferative activity against human PC-3 cells; format: functional, cell-based
[21] = system: MDA-MB-453; experiment: Antiproliferative activity against human MDA-MB-453 cells; format: functional, cell-based
[22] = system: RT-112; experiment: Antiproliferative activity against human RT-112 cells; format: functional, cell-based
[23] = system: SNU-423; experiment: Antiproliferative activity against human SNU-423 cells; format: functional, cell-based
[24] = system: A-375; experiment: Antiproliferative activity against human A-375 cells; format: functional, cell-based
[25] = system: HT-29; experiment: Antiproliferative activity against human HT-29 cells; format: functional, cell-based
[26] = system: PANC-1; experiment: Antiproliferative activity against human PANC-1 cells; format: functional, cell-based
[27] = system: NCI-H460; experiment: Antiproliferative activity against human NCI-H460 cells; format: functional, cell-based
[28] = system: G-361; experiment: Antiproliferative activity against human G-361 cells; format: functional, cell-based; conditions: read-out: IC50

CSc1nc2ccccc2cc1/C=[N+](\[O-])c1ccccc1
fold change (FC) [1]: 12 | IC50 [2]: 450 nM | fold change (FC) [3]: 4 | IC50 [4]: 450 nM

Clc1ccc2c(N3CC(CN4CCCC4)N=N3)ccnc2c1 (stereo not drawn) [listing 1 of 2 here]
IC50 [5]: 4560 nM

COc1ccc(C(=O)/C=C/c2cc3ccccc3nc2Cl)cc1OC
inhibition [6]: 61.3%

O=C(O)c1cc(C#Cc2c(C3CC3)nc3ccccc3c2-c2ccc(F)cc2)ccc1Br
IC50 [7]: 450 nM

COc1cc2nccc(Oc3ccc(NC(=O)Nc4ccc(F)cc4F)c(F)c3)c2cc1OC
IC50 [8]: 360 nM

COc1ccc2nc(O)c(/C=C/C(=O)c3ccc(C)cc3)cc2c1
IC50 [9]: 38 nM | IC50 [10]: 38 nM | IC50 [11]: 38 nM

CNC(=O)c1sc(N2N=C(c3ccc(C)cc3)CC2c2cc3cc(OC)ccc3nc2Cl)nc1C (stereo not drawn)
IC50 [9]: 38 nM | IC50 [10]: 38 nM | IC50 [11]: 38 nM

Cc1ccc2cccc(OS(=O)(=O)c3ccc(CBr)cc3)c2n1
fold change (FC) [12]: 0.25

COc1ccc2nc(Cl)c(C3CC(c4ccc(C)cc4)=NN3c3nc(-c4ccc(C)cc4)cs3)cc2c1 (stereo not drawn)
IC50 [9]: 38 nM | IC50 [10]: 38 nM | IC50 [11]: 38 nM

COc1cc(/C=C/C(=O)c2cccc(Nc3ccnc4cc(Cl)ccc34)c2)cc(OC)c1OC
Time [13]: 24.6 days | Activity [14]: 1.4%

Clc1ccc2c(N3CCN(CCCN4CCN(c5ccnc6cc(Cl)ccc56)CC4)CC3)ccnc2c1 [PIPERAQUINE]
IC50 [15]: 0.7 nM | IC50 [16]: 1.5 nM

Clc1ccc2c(N3CC(CN4CCCCC4)N=N3)ccnc2c1 (stereo not drawn) [listing 1 of 2 here]
IC50 [5]: 4560 nM

Clc1ccc2c(N3CC(CN4CCCCC4)N=N3)ccnc2c1 (stereo not drawn) [listing 2 of 2 here]
IC50 [5]: 206 nM

C[C@@H]1CCC2[C@@H](C)[C@H](OC(=O)CCC(=O)NCCNc3ccnc4cc(Cl)ccc34)O[C@@H]3O[C@@]4(C)CC[C@@H]1[C@@]23OO4 (stereo partly drawn)
EC50 [17]: 0.78 nM | EC50 [16]: 0.78 nM | EC50 [18]: 0.78 nM

COc1cc2c(Oc3ccc(NS(=O)(=O)c4cc(F)ccc4F)cc3F)ccnc2cc1OCCCN1CCCC(C)C1 (stereo not drawn)
IC50 [8]: 21 nM

COc1cc2c(C(=O)Nc3nc4ccccc4s3)cc(O)nc2cc1Cl
IC50 [19]: < 75 nM

Clc1ccc2c(N3CC(CN4CCCC4)N=N3)ccnc2c1 (stereo not drawn) [listing 2 of 2 here]
IC50 [5]: 206 nM

COc1ccc(/C=C/C(=O)c2cccc(Nc3ccnc4cc(Cl)ccc34)c2)cc1OC
Time [13]: 22.44 days | Activity [14]: 1.4%

COc1cc2c(Oc3ccc(NS(=O)(=O)c4ccccc4C(F)(F)F)cc3F)ccnc2cc1OCCCN1CCC(C)CC1
IC50 [8]: 21 nM

Cc1cc2c(C(=O)Nc3nc4ccccc4s3)cc(O)nc2cc1Cl
IC50 [20]: 18 nM | IC50 [19]: < 75 nM

CCN1CCN(C(=S)SCCCN(c2cc(OC)c(OC)c(OC)c2)S(=O)(=O)c2cccc3cccnc23)CC1
IC50 [21]: 700 nM | IC50 [22]: 700 nM | IC50 [23]: 700 nM

O=S(=O)(Oc1c(Br)cc(Br)c2cccnc12)c1cccc2cccnc12
fold change (FC) [12]: 0.38

C#CCCCC(C(=O)NCCOC(=O)CCC(=O)O[C@@H]1O[C@@H]2O[C@@]3(C)CC[C@H]4[C@H](C)CCC([C@H]1C)[C@@]24OO3)c1ccnc2cc(Cl)ccc12 (stereo partly drawn)
EC50 [17]: 0.78 nM | EC50 [16]: 0.78 nM | EC50 [18]: 0.78 nM

COc1cc(N(CCCSC(=S)N2CCN(CCO)CC2)S(=O)(=O)c2cccc3cccnc23)cc(OC)c1OC
IC50 [21]: 700 nM | IC50 [22]: 700 nM | IC50 [23]: 700 nM

Cc1cc2nc(O)cc(C(=O)Nc3nc4ccccc4s3)c2cc1C
IC50 [20]: 48 nM | IC50 [19]: < 75 nM

COc1nc2ccc(C)cc2cc1Cc1cc(-c2ccccc2)n[nH]c1=O
IC50 [24]: 2200 nM | IC50 [25]: 2200 nM | IC50 [26]: 2200 nM | IC50 [27]: 2200 nM

COc1ccc2ccc(F)c(CC(=O)N/N=C/c3ccc(C(F)(F)F)cc3)c2n1
IC50 [10]: 2070 nM | IC50 [28]: 2070 nM
